Consider six compounds from patent US6696475B2, “Substituted phenyl derivatives, their preparation and use” (NeuroSearch A/S, priority 1997, dated 2004).

The target in data set [1] is erythrocyte chloride channels. Put plainly: Cl- conductance (GCl) from conductive netfluxes of Cl- and membrane potentials in suspensions of normal erythrocytes. It is filed as cell-based, Human. The following applies: suspension of normal erythrocytes; for Kd: read-out: KD-value for block of GCl. From the text:
(§1) The compounds of the present invention are potent blockers of chloride channels in normal as well as sickle cell erythrocytes.
(§2) All dose-response experiments were therefore performed by concomitant measurements of conductive neffluxes of Cl^− (JCl) and membrane potentials (Vm) in suspensions of erythrocytes (Bennekou, P. and Christophersen, P. (1986), Flux ratio of Valinomycin—Mediated K^+ Fluxes across the Human Red Cell Membrane in the presence of the Protronophore CCCP. J. Membrane Biol. 93, 221-227. ). The membrane Cl^− conductances (GCl) were calculated by the following equation (Hodgkin, A. L. and Huxley, A. F. (1952) The components of membrane conductance in the giant axon of Loligo. J. Physiol. Lond. 116, 449-472): [formula]
(§3) where F is the Faraday constant, ECl is the Nernst potential for the Cl-ion.

For the next data set, the system named is bone resorbtion. The following applies: in vitro; cited from earlier work.
A further data set has as its system bone degration. The settings on record: growing yound rats; cited from earlier work.
A further data set has as its system proton pump. The following applies: cited from earlier work.
For a further data set, the system named is erythrocytes. Put plainly: Valinomycin induced cell volume loss, relative volume of packed cells. The format is cell-based. The following applies: valinomycin for 5 min; volume loss 26% without compound. The protocol: Inducing a massive water and salt loss (KCl) by addition the K^+-ionophore valinomycin to the suspension for 5 min reduced the cell volume by 26%.

A further data set concerns Normal erythrocytes. As to the kind of experiment: K+-flux from normal erythrocytes, extracellular K+-concentration vs time. It is filed as cell-based. The following applies: 10 μM. From the text: (§4) Deoxygenation induced permeability increases of sickle cells were estimated by measuring the extracellular K^+-concentration vs time. […] The K^+ flux from oxygenated sickle erythrocytes was 2-3 times higher than from normal erythrocytes and these fluxes was accelerated 4-8 times upon deoxygenation.

A further data set has as its system mice. The settings on record: mouse, in vivo. The protocol:
(§5) 3-Trifluoromethylphenyl-2-carboxyphenyl urea is non-toxic to mice and rats at concentrations up to 250 mg/kg i.p. and i.v.

The next data set has as its system rats. The following applies: rat, in vivo. The protocol:
as §5

For another data set, the system named is sickle erythrocytes. As to the kind of experiment: Deoxygenation induced permeability increase of sickle cells, extracellular K+-concentration vs time. It is filed as cell-based. The following applies: 10 μM.
Description: as §4

Data set [2] has as its system erythrocyte chloride channels (homozygoteous sickle cell erythrocytes). As to the kind of experiment: Cl- conductance (GCl) in sickle cell erythrocytes. It is filed as cell-based, Human. The following applies: oxygenated as well as deoxygenated homozygoteous sickle cell erythrocytes.
Description: as §1, §2, §3

In general, melting point refers to the temperature, or range, at which the solid turns liquid. The term Kd denotes the equilibrium constant for the complex coming apart.

`CN(C)S(=O)(=O)c1ccc(-c2ccc(NC(=O)Nc3cccc(C(F)(F)F)c3)c(-c3nnn[nH]3)c2)cc1` [N-(3-Trifluoromethylphenyl)-N′-(4′-(N,N-dimethylsulfamoyl)-2-(1-H-tetrazol-5-yl)-4-biphenyl) urea] displayed a melting point of 258 to 260 °C. Moreover, the Kd in [1] came out at 300 nM.

For `CC(=O)Nc1nnc(S(N)(=O)=O)s1` [acetacolamide], the “effect on bone resorbtion, pit formation” value with bone resorbtion is recorded as “effective”.

For the compound `CO/C1=C\C(C)=C\[C@@H](C)[C@@H](O)[C@@H](C)C/C(C)=C/C=C/[C@H](OC)[C@@H]([C@@H](C)[C@@H](O)[C@H](C)[C@@]2(O)C[C@@H](O)[C@H](C)[C@@H](C(C)C)O2)OC1=O` [bafilomycin A1], the “effect on bone degration” value in the data set on bone degration is “depresses”. The “block of the proton pump” value in the data set on proton pump was “extremely potent, reversible inhibitor”. For the same compound, the “effect on bone resorbtion, pit formation” value in the data set on bone resorbtion is “completely eliminates”.

In the case of `O=C(Nc1cccc(C(F)(F)F)c1)Nc1ccc(Br)cc1-c1nnn[nH]1` [3-Trifluoromethylphenyl-4-bromo-2-(5-tetrazolyl)phenyl Urea], in data set [1], the dissociation constant (Kd) came out at 1900 nM.

`COc1ccc2[nH]c([S+]([O-])Cc3ncc(C)c(OC)c3C)nc2c1` (centres unmarked) [omeprazol]: the “block of the proton pump” value with proton pump was “ineffective”.

As for `O=C(Nc1cccc(C(F)(F)F)c1)Nc1ccccc1C(=O)O` [N-3-Trifluoromethylphenyl-N′-2-carboxyphenyl Urea], the “cell volume loss in presence of compound” value in the data set with erythrocytes was 7%. For the same compound, in the data set with Normal erythrocytes, the “effect on K+-fluxes of normal erythrocytes” value was “insensitive”. Besides, the non-toxic dose result with mice was “up to 250 mg/kg”. In addition, in the data set on rats, the non-toxic dose entry is “up to 250 mg/kg”. Moreover, in the data set on sickle erythrocytes, the “basal K+-flux from sickle erythrocytes” value is “normalised”. Besides, the “deoxygenation induced K+ flux component” value in the data set on sickle erythrocytes (deoxygenated sickle erythrocytes) is “nearly abolished”. For the same compound, in data set [1], the “block of GCl” value is “more than 95%” and the Kd is 1300 nM. For the same compound, the “block of GCl compared with normal erythrocytes” value in [2] is “equipotently blocked”.
